# Test results: PMC3736852 (Endocrine-related cancer, 2012)
# Biological target: T1, Na+/I− symporter (NIS) (Rattus norvegicus, UniProt Q63008)
# T1 sequence (Q63008 1-618): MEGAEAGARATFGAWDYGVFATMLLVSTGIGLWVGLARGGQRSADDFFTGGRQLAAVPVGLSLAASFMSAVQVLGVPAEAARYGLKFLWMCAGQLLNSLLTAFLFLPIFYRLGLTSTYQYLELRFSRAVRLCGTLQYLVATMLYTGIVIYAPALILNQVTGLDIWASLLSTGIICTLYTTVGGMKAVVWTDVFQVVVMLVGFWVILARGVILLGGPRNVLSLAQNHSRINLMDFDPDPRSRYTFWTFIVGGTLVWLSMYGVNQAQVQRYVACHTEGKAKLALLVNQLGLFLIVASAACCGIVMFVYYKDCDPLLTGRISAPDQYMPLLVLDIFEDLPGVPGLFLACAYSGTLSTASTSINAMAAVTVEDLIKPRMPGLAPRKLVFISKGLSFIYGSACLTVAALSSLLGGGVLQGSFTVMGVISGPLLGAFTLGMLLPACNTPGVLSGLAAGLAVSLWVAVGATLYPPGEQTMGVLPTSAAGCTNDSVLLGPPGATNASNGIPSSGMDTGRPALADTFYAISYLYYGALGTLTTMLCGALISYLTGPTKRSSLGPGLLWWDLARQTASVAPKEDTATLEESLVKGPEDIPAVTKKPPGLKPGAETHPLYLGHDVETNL
# Assay: inhibition of NIS-mediated […] radioiodide uptake
# Assay type: cell-based
smiles,measurement,value
[O-][Cl+3]([O-])([O-])O [perchlorate],IC50,3 µM
